Experimental findings from PubChem BioAssay AID2510 (The Scripps Research Institute Molecular Screening Center, 2010) are described below.

pEC50: −log10 of the molar value.

This assay addresses Mucolipin-3 (Homo sapiens) (UniProt Q8TDD5). The assay is described as follows: human mucolipin-3 activators, concentration-response – cell-based, calcium fluorescence, dose response (AID 2510). The note with it: TRPML3-expressing cells, agonist mode.

Chain of Mucolipin-3 (Homo sapiens) (Q8TDD5 whole entry, looked up): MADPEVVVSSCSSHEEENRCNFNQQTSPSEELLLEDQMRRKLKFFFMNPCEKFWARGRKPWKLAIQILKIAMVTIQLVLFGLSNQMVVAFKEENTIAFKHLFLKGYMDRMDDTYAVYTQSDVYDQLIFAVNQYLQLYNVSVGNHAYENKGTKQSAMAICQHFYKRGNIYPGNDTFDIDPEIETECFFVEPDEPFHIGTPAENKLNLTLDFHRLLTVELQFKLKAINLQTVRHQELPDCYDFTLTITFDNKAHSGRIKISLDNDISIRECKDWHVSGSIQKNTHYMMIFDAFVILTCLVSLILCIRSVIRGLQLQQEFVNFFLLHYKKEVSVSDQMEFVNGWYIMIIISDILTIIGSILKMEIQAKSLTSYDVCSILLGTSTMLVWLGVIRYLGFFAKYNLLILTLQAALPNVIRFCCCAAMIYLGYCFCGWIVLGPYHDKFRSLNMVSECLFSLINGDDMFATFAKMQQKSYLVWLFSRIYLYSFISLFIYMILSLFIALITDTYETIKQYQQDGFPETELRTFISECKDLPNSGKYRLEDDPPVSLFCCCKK

On to `CCOc1ccc(S(=O)(=O)N2CCCCC2)c(C)c1C`, for which the pEC50 is 5.75.
